Experiments:
Leishmania infantum = assay: Antiprotozoal activity against amastigote form of Leishmania infantum MHOM/MA(BE)/67 infected in mouse peritoneal macrophages assessed as reduction of intracellular parasite burden after 5 days by Giemsa staining method; format: functional, organism-based; conditions: MHOM/MA(BE)/67, 120 h
[1] = tested on: Trypanosoma brucei brucei; assay: Antiprotozoal activity against trypomastigote form of Trypanosoma brucei brucei 427 assessed as parasite growth inhibition; format: functional, organism-based
[2] = tested on: Trypanosoma brucei rhodesiense; assay: Antiprotozoal activity against trypomastigote form of Trypanosoma brucei rhodesiense STIB900 assessed as parasite growth inhibition after 72 hrs by Alamar blue assay; format: functional, organism-based; conditions: STIB900, 72 h
[3] = Selectivity index, ratio of CC50 for human MRC5 cells to IC50 for epimastigote form of Trypanosoma cruzi Tulahuen 2; format: functional
[4] = Lipophilicity, log P of the compound; format: physicochemical; conditions: octanol/water
[5] = Selectivity index, ratio of CC50 for human MRC5 cells to IC50 for trypomastigote form of Trypanosoma brucei rhodesiense STIB900; format: functional
[6] = Cytotoxicity against human MRC5 cells assessed as cell viability after 7 days by Alamar blue assay; format: cell-based
Trypanosoma cruzi = assay: Antiprotozoal activity against epimastigote form of Trypanosoma cruzi Tulahuen 2 assessed as parasite growth inhibition measured at day 5; format: functional, organism-based; conditions: Tulahuen 2, 120 h
[7] = Selectivity index, ratio of CC50 for human MRC5 cells to IC50 for amastigote form of Leishmania infantum MHOM/MA(BE)/67; format: functional
[8] = Selectivity index, ratio of CC50 for human MRC5 cells to IC50 for trypomastigote form of Trypanosoma brucei brucei 427; format: functional
[9] = Cytotoxicity against mouse peritoneal macrophages; format: cell-based; conditions: peritoneal macrophage cell

SMILES | IC50 (Leishmania infantum) [µM] | IC50 [1] [µM] | IC50 [2] [µM] | Ratio CC50/IC50 [3] | logP [4] | Ratio CC50/IC50 [5] | CC50 at 168 h [6] [µM] | IC50 (Trypanosoma cruzi) [µM] | Ratio CC50/IC50 [7] | Ratio CC50/IC50 [8] | Activity [9]
O/N=C1\c2ccccc2-c2c1c(N1CCN(c3ccccn3)CC1)nc1ccc(Br)cc21 | 9.51 | 8.17 | 2.61 | 9.13 | 6.4 | 24.52 | 64 | 7.01 | 6.73 | 7.34 | 
CC1(O)c2ccccc2-c2c1c(-n1ccnc1)nc1ccc(Br)cc21 (stereo not drawn) | 12.7 | 18.8 | 5.93 | 8.23 | 3.86 | 1.93 | 11.5 | 1.39 | 0.9 | 0.61 | 
CC(=O)OC1(C)c2ccccc2-c2c1c(-n1ccnc1)nc1ccc(Br)cc21 (stereo not drawn) | 21.1 | 29 | 7.11 | 34.65 | 4.09 | 4.53 | 32.2 | 0.93 | 1.52 | 1.11 | 
CCCCC(=O)OC1(C)c2ccccc2-c2c1c(-n1ccnc1)nc1ccc(Br)cc21 (stereo not drawn) | 5.66 | 8.11 | 5.81 | 14.91 | 5.58 | 3.74 | 21.8 | 1.46 | 3.84 | 2.68 | 
CC(C)CC(NC(=O)OCC1c2ccccc2-c2ccccc21)C(=O)O/N=C1\c2ccccc2-c2c1c(N1CCN(c3ccccn3)CC1)nc1ccc(Br)cc21 (stereo not drawn) | 3.17 | 7.33 | 1.52 | 1.8 | 8.3 | 8.94 | 13.6 | 7.52 | 4.28 | 1.85 | 
OC(c1ccccc1)c1c(C(F)(F)F)nc2ccc(Br)cc2c1Br (stereo not drawn) | 8.11 | 7.52 | 5.94 | 0.19 | 6.26 | 0.25 | 1.51 | 8.07 | 0.19 | 0.2 | 
COc1ccccc1NC(=O)NCC(O)COC1(C)c2ccccc2-c2c1c(OC)nc1ccc(Br)cc21 (stereo not drawn) | 9.51 | 8.23 | 1.88 | 2.12 | 4.84 | 2.82 | 5.31 | 2.5 | 0.56 | 0.64 | 
CC1(O)c2ccccc2-c2c1c(OCC(F)(F)F)nc1ccc(Br)cc21 (stereo not drawn) | 8 | 8.23 | 3.23 | 2.86 | 5.71 | 6.14 | 19.8 | 6.92 | 2.48 | 2.41 | 
CC1(OCC2CO2)c2ccccc2-c2c1c(C(F)(F)F)nc1ccc(Br)cc21 (stereo not drawn) | 27.3 | 8.57 | 5.49 | 0.48 | 5.23 | 0.73 | 4 | 8.37 | 0.14 | 0.47 | 
COc1nc2ccc(Br)cc2c2c1C(C)(OCC(O)Cn1ccnc1)c1ccccc1-2 (stereo not drawn) | 6.01 | 2.03 | 1.17 | 3.7 | 3.68 | 6.83 | 8 | 2.16 | 1.33 | 3.94 | 
COc1nc2ccc(Br)cc2c2c1C(C)(OCC(O)Cn1ccc(-c3cccc(C(F)(F)F)c3)n1)c1ccccc1-2 (stereo not drawn) | 5.08 | 2.31 | 1.25 | 4.5 | 7.5 | 19.29 | 24.1 | 5.35 | 4.74 | 10.43 | 
COc1nc2ccc(Br)cc2c2c1C(C)(OC(=O)N(C)C)c1ccccc1-2 (stereo not drawn) | 64 | 8.23 | 5.28 | 8.62 | 4.91 | 12.12 | 64 | 7.42 | 1 | 7.77 | 
O=C1c2ccccc2-c2c1c(N1CCN(c3ccccn3)CC1)nc1ccc(Br)cc21 | 20.3 | 7.69 | 5.98 | 0.63 | 6.01 | 0.72 | 4.33 | 6.87 | 0.21 | 0.56 | 
COc1nc2ccc(Br)cc2cc1C(c1ccccc1)n1ccnc1 (stereo not drawn) | 25.4 | 32.7 | 8.43 | 67.02 | 4.52 | 3.65 | 30.8 | 0.46 | 1.21 | 0.943 | 
COc1cccc(NC(=S)Nc2ccc3nc(Oc4ccc(F)cc4C(C)O)c(Cc4ccccc4)cc3c2)c1 (stereo not drawn) | 6.82 | 2 | 0.53 |  | 7.86 |  | 64 | 14.7 | 8 | 26.66 | 
O=[N+]([O-])c1ccc2nc(Oc3ccc(F)cc3C(O)Cn3ccnc3)c(Cc3ccccc3)cc2c1 (stereo not drawn) | 2.52 | 2.18 | 1.81 | 125.76 |  | 17.37 | 31.4 | 0.25 | 12.47 | 14.42 | Non-toxic
COc1ccc(NC(=S)Nc2ccc3nc(Oc4ccc(F)cc4C(C)O)c(Cc4ccccc4)cc3c2)cc1 (stereo not drawn) | 8.11 | 2.09 | 1.31 | 10.27 | 7.86 | 30.91 | 42.3 | 5.81 | 7.89 | 31.37 | 
COc1nc2ccc(Br)cc2c2c1C(C)(OCC(O)CN1CCN(Cc3ccccc3)CC1)c1ccccc1-2 (mixture of isomers) | 9.51 | 2.24 | 1.99 | 0.77 | 5.85 | 2.83 | 5.63 | 7.25 | 0.59 | 2.51 | 
COc1nc2ccc(Br)cc2c2c1C(C)(OCC(O)CN1CCN(C(c3ccccc3)c3ccccc3)CC1)c1ccccc1-2 (mixture of isomers) | 8.11 | 2.04 | 1.64 | 3 | 7.56 | 10.7 | 17.6 | 5.85 | 2.16 | 8.6 | 

From ChEMBL document CHEMBL2375345, “New antiprotozoal agents: their synthesis and biological evaluations” (Bioorg Med Chem Lett, 2013)
